Common to all, as to type: biochemical
The target of experiment [1] is LCK (Homo sapiens, UniProt P06239). Nature of the experiment: Kinase panel inhibition, LCK (one of the methods of Example 76a, 76b, 76c). Here is the method: (§1) Btk kinase activity is determined using a time-resolved fluorescence resonance energy transfer (TR-FRET) methodology. Measurements are performed in a reaction volume of 50 μL using 96-well assay plates. Kinase enzyme, inhibitor, ATP (at the Km for the kinase), and 1 peptide substrate (Biotin-AVLESEEELYSSARQ-NH2) are incubated in a reaction buffer composed of 20 mM Tris, 50 mM NaCl, MgCl2 (5-25 mM depending on the kinase), MnCl2 (0-10 mM), 1 mM DTT, 0.1 mM EDTA, 0.01% bovine serum albumin, 0.005% Tween-20, and 10% DMSO at pH 7.4 for one hour. The reaction is quenched by the addition of 1.2 equivalents of EDTA (relative to divalent cation) in 25 μL of 1× Lance buffer (Perkin-Elmer). Streptavidin-APC (Perkin-Elmer) and Eu-labeled p-Tyr100 antibody (Perkin-Elmer) in 1× Lance buffer are added in a 25 μL volume to give final concentrations of 100 nM and 2.5 nM, respectively, and the mixture is allowed to incubate for one hour. The TR-FRET signal is measured on a multimode plate reader with an excitation wavelength (λEx) of 330 nm and detection wavelengths (λEm) of 615 and 665 nm. Activity is determined by the ratio of the fluorescence at 665 nm to that at 615 nm. For each compound, enzyme activity is measured at various concentrations of compound. Negative control reactions are performed in the absence of inhibitor in replicates of six, and two no-enzyme controls are used to determine baseline fluorescence levels. Inhibition constants, Ki(app), were obtained using the program BatchKi (Kuzmic et al. (2000), Anal. Biochem. 286:45-50). IC50s are obtained according to the equation: IC50=[…]+[E]total/2;
(§2) For all kinases, [ATP]=Km^ATP, [Btk]total=0.5 nM and [Lck]total=6 nM.
(§3) Kinase activity is measured in vitro using electrophoretic mobility shift assay. The kinase reactions are assembled in a total volume of 25 μL in 384 well plates. The reactions comprise: BTK enzyme (1 nM, N-terminal His6-tagged, recombinant, full-length, human BTK purified from baculovirus Sf21 insect cell system), inhibitor, ATP (16 μM, the apparent Km for the kinase), fluorescently labeled peptide substrate (1 μM, FAM-GEEPLYWSFPAKKK-NH2) in a reaction buffer composed of 100 mM HEPES, pH7.5, 5 mM MgCl2 1 mM DTT, 0.1% bovine serum albumin, 0.01% Triton X-100, and 1% DMSO. The reaction is incubated for one hour and is quenched by the addition of 45 μL of termination buffer (100 mM HEPES, pH7.5, 0.01% Triton X-100, 30 mM EDTA). The terminated reactions are analyzed using 12 channel LabChip® 3000 microfluidic detection instrument (Caliper Life Sciences). The enzymatic phosphorylation of the peptide results in a change in net charge, enabling electrophoretic separation of product from substrate peptide. As substrate and product peptides are separated, two peaks of fluorescence are observed. Change in the relative fluorescence intensity of the substrate and product peaks is the parameter measured, reflecting enzyme activity. In the presence of an inhibitor, the ratio between product and substrate is altered:the signal of the product decreases, while the signal of the substrate increases.
(§4) Activity in each sample is determined as the product to sum ratio (PSR):P/(S+P), where P is the peak height of the product peptide and S is the peak height of the substrate peptide. For each compound, enzyme activity is measured at various concentrations (12 concentrations of compound spaced by 3× dilution intervals). Negative control samples (0%-inhibition in the absence of inhibitor) and positive control samples (100%-inhibition, in the presence of 20 mM EDTA) are assembled in replicates of four and are used to calculate %-inhibition values for each inhibitor at each concentration. Percent inhibition (Pinh) is determined using following equation: […]

The target in experiment [2] is T1, BTK (Homo sapiens, UniProt Q06187).
T1 construct: purified from insect cells as a full-length construct containing a N-terminal 6×-His tag; His6 (N); host or cells: insect cells (baculovirus Sf21)
Nature of the experiment: Btk in vitro inhibitory activity (kinase assay by one of Methods A, B or C). Here is the method:
as §1, §2, §3, §4

Experiment [3] has as its target EGFR (Homo sapiens, UniProt P00533). Nature of the experiment: Kinase panel inhibition, EGFR (one of the methods of Example 76a, 76b, 76c). As for the experimental part:
as §1, §2, §3, §4

For 16 molecules, IC50 results are on record in US9469642B2, “Purinone compounds as kinase inhibitors” (Pharmacyclics LLC, priority 2012, dated 2016).

Where a name gives a salt, the structure may show the parent alone. Where only a bound is given, the exact number is not on record here.

Broadly, the IC50 is the concentration needed to halve the response being measured. High values mean weaker potency in that assay, low ones greater potency in that assay.

EGFR, sequence (P00533 25-1210, species assumed): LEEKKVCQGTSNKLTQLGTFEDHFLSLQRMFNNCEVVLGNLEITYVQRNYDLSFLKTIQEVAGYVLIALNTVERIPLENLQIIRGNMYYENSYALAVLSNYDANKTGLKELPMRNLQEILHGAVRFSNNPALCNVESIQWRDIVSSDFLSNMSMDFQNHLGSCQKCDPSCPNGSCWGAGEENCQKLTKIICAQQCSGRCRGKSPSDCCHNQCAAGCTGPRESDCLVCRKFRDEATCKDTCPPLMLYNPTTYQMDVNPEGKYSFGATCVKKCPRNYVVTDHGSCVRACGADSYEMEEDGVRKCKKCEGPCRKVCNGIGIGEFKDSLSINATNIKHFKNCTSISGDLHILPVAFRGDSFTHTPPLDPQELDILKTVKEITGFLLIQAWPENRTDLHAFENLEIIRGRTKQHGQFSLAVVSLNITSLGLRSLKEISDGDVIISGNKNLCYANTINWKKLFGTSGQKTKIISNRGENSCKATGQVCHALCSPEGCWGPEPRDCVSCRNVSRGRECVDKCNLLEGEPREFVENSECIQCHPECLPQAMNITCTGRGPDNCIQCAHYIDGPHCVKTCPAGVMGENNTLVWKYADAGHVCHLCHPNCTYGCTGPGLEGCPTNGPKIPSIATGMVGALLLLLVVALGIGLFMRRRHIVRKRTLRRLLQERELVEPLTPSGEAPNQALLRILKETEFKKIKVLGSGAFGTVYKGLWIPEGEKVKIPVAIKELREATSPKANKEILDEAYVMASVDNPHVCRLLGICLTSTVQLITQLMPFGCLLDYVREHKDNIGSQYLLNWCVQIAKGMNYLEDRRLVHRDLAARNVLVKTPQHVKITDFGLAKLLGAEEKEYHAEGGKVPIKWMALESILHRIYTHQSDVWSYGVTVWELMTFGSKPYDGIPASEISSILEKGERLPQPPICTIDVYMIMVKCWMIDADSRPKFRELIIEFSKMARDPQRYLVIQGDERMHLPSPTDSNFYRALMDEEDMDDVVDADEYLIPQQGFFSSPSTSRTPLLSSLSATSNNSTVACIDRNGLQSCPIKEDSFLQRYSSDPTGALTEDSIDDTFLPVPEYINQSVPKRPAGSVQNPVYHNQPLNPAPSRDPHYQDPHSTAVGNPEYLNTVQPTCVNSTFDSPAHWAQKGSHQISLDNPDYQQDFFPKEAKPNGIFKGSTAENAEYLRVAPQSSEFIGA
LCK, sequence (P06239 whole entry, species assumed): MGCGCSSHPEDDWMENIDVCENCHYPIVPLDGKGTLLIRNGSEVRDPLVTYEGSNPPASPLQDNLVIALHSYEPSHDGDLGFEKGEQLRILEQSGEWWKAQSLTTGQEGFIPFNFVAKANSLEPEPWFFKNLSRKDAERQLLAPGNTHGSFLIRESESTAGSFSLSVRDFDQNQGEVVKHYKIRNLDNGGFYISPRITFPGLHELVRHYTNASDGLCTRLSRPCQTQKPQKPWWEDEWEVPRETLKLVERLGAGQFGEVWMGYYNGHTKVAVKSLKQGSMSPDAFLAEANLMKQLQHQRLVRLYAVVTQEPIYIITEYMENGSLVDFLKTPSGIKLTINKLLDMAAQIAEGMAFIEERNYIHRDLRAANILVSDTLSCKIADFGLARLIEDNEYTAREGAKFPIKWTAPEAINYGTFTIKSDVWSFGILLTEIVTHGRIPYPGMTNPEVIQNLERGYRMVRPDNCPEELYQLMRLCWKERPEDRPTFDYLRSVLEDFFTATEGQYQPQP
T1 sequence (Q06187 whole entry): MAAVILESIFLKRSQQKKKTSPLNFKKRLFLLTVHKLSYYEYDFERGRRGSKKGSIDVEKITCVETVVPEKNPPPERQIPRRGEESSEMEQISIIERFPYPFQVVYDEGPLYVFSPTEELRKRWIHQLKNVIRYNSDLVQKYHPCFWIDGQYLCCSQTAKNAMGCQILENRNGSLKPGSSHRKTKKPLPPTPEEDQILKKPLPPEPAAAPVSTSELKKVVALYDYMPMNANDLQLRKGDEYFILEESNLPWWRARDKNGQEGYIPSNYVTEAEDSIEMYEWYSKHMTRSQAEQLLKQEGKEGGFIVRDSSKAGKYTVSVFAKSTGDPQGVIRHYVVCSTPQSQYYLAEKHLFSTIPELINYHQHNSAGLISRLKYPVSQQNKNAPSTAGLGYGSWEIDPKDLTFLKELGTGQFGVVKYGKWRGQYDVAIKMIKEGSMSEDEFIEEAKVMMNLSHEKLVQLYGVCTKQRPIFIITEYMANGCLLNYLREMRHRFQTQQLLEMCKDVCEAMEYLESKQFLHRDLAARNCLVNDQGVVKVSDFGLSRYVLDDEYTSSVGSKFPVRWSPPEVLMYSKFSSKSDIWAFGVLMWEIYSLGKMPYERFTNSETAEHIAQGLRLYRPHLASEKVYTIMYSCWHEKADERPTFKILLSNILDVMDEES

`COCCOc1ccc(-n2c(=O)n(-c3ccc(C)c(OC)c3)c3c(N)ncnc32)cc1N(C)C(=O)/C=C/CN(C)C` [Compound 104, (E)-N-(5-(6-amino-7-(3-methoxy-4-methylphenyl)-8-oxo-7H-purin-9(8H)-yl)-2-(2-methoxyethoxy)phenyl)-4-(dimethylamino)-N-methylbut-2-enamide]: the IC50 in experiment [1] is > 10000 nM; in experiment [2], 100 to 1000 nM; in experiment [3], > 10000 nM.

With `COCCOc1ccc(-n2c(=O)n(-c3ccc(C)c(OC)c3)c3c(N)ncnc32)cc1NC(=O)/C=C/CN(C)C` [Compound 112, (E)-N-(5-(6-amino-7-(3-methoxy-4-methylphenyl)-8-oxo-7H-purin-9(8H)-yl)-2-(2-methoxyethoxy)phenyl)-4-(dimethylamino)but-2-enamide], the IC50 in experiment [1] was 1000 to 10000 nM; in experiment [2], < 100 nM; in experiment [3], 1000 to 10000 nM.

`CN(C(=O)/C=C/CNC1CC1)c1cccc(-n2c(=O)n(-c3ccc(Oc4ccccc4)cc3)c3c(N)ncnc32)c1` [Compound 118, (E)-N-(3-(6-amino-8-oxo-7-(4-phenoxyphenyl)-7H-purin-9(8H)-yl)phenyl)-4-(cyclopropylamino)-N-methylbut-2-enamide]: the IC50 is 100 to 1000 nM in experiment [1], < 100 nM in experiment [2] and 100 to 1000 nM in experiment [3].

Regarding `CN(C(=O)/C=C/CN(C)[C@H]1CCOC1)c1cccc(-n2c(=O)n(-c3ccc(Oc4ccccc4)cc3)c3c(N)ncnc32)c1` [Compound 123, (S,E)-N-(3-(6-amino-8-oxo-7-(4-phenoxyphenyl)-7H-purin-9(8H)-yl)phenyl)-N-methyl-4-(methyl(tetrahydrofuran-3-yl)amino)but-2-enamide], the IC50 in experiment [1] was 1000 to 10000 nM; in experiment [2], < 100 nM; in experiment [3], 1000 to 10000 nM.

`CN(C(=O)/C=C/CN(C)[C@@H]1CCOC1)c1cccc(-n2c(=O)n(-c3ccc(Oc4ccccc4)cc3)c3c(N)ncnc32)c1` [Compound 129, (R,E)-N-(3-(6-amino-8-oxo-7-(4-phenoxyphenyl)-7H-purin-9(8H)-yl)phenyl)-N-methyl-4-(methyl(tetrahydrofuran-3-yl)amino)but-2-enamide]: the IC50 in experiment [1] was 1000 to 10000 nM; in experiment [2], < 100 nM; in experiment [3] it was 1000 to 10000 nM.

For `COCCN(C)C/C=C/C(=O)N(C)c1cccc(-n2c(=O)n(-c3ccc(Oc4ccccc4)cc3)c3c(N)ncnc32)c1` [Compound 134, (E)-N-(3-(6-amino-8-oxo-7-(4-phenoxyphenyl)-7H-purin-9(8H)-yl)phenyl)-4-((2-methoxyethyl)(methyl)amino)-N-methylbut-2-enamide], the IC50 in experiment [1] was 1000 to 10000 nM; in experiment [2], < 100 nM; in experiment [3], 100 to 1000 nM.

Regarding `COCCOc1cc(N(C)C(=O)/C=C/CN(C)C)cc(-n2c(=O)n(-c3ccc(C)c(OC)c3)c3c(N)ncnc32)c1` [Compound 147, (E)-N-(3-(6-amino-7-(3-methoxy-4-methylphenyl)-8-oxo-7H-purin-9(8H)-yl)-5-(2-methoxyethoxy)phenyl)-4-(dimethylamino)-N-methylbut-2-enamide], the IC50 in experiment [1] is > 10000 nM; in experiment [2] it was < 100 nM; in experiment [3] it was > 10000 nM.

With `CN(C(=O)/C=C/CN(C)C1CC1)c1cccc(-n2c(=O)n(-c3ccc(Oc4cccc(F)c4)cc3)c3c(N)ncnc32)c1` [Compound 151, (E)-N-(3-(6-amino-7-(4-(3-fluorophenoxy)phenyl)-8-oxo-7H-purin-9(8H)-yl)phenyl)-4-(cyclopropyl(methyl)amino)-N-methylbut-2-enamide], the IC50 is 1000 to 10000 nM in experiment [1], < 100 nM in experiment [2] and 1000 to 10000 nM in experiment [3].

For the molecule `CN(C/C=C/C(=O)N1CCOc2ccc(-n3c(=O)n(-c4ccc(Oc5ccccc5)cc4)c4c(N)ncnc43)cc21)C1CC1` [Compound 161, (E)-6-amino-9-(4-(4-(cyclopropyl(methyl)amino)but-2-enoyl)-3,4-dihydro-2H-benzo[b][1,4]oxazin-6-yl)-7-(4-phenoxyphenyl)-7H-purin-8(9H)-one], the IC50 in experiment [1] is 1000 to 10000 nM; in experiment [2], < 100 nM; in experiment [3] it was 100 to 1000 nM.

Take `COc1ccc(-n2c(=O)n(-c3ccc(Oc4ccccc4)cc3)c3c(N)ncnc32)cc1N(C)C(=O)/C=C/CN(C)C1CC1` [Compound 171, (E)-N-(5-(6-amino-8-oxo-7-(4-phenoxyphenyl)-7H-purin-9(8H)-yl)-2-methoxyphenyl)-4-(cyclopropyl(methyl)amino)-N-methylbut-2-enamide]: the IC50 in experiment [1] is 1000 to 10000 nM; in experiment [2] it was < 100 nM; in experiment [3], 1000 to 10000 nM.

`Cc1ccc(N(C)C(=O)/C=C/CN(C)C2CC2)cc1-n1c(=O)n(-c2ccc(Oc3ccccc3)cc2)c2c(N)ncnc21` [Compound 191, (E)-N-(3-(6-amino-8-oxo-7-(4-phenoxyphenyl)-7H-purin-9(8H)-yl)-4-methylphenyl)-4-(cyclopropyl(methyl)amino)-N-methylbut-2-enamide]: the values for the IC50 in experiment [1], in experiment [2] and in experiment [3] were > 10000 nM, 100 to 1000 nM and > 10000 nM, respectively.

As to `Cc1ccc(-n2c(=O)n(-c3ccc(Oc4ccccc4)cc3)c3c(N)ncnc32)cc1N(C)C(=O)/C=C/CN(C)C1CC1` [Compound 201, (E)-N-(5-(6-amino-8-oxo-7-(4-phenoxyphenyl)-7H-purin-9(8H)-yl)-2-methylphenyl)-4-(cyclopropyl(methyl)amino)-N-methylbut-2-enamide], the IC50 in experiment [1] was 1000 to 10000 nM; in experiment [2], < 100 nM; in experiment [3], 1000 to 10000 nM.

In the case of `Cc1cc(N(C)C(=O)/C=C/CN(C)C2CC2)cc(-n2c(=O)n(-c3ccc(Oc4ccccc4)cc3)c3c(N)ncnc32)c1` [Compound 211, (E)-N-(3-(6-amino-8-oxo-7-(4-phenoxyphenyl)-7H-purin-9(8H)-yl)-5-methylphenyl)-4-(cyclopropyl(methyl)amino)-N-methylbut-2-enamide], the IC50 in experiment [1] is 1000 to 10000 nM; in experiment [2], < 100 nM; in experiment [3], 100 to 1000 nM.

Regarding `COc1cc(N(C)C(=O)/C=C/CN(C)C2CC2)cc(-n2c(=O)n(-c3ccc(Oc4ccccc4)cc3)c3c(N)ncnc32)c1` [Compound 224, (E)-N-(3-(6-amino-8-oxo-7-(4-phenoxyphenyl)-7H-purin-9(8H)-yl)-5-methoxyphenyl)-4-(cyclopropyl(methyl)amino)-N-methylbut-2-enamide], the figures for the IC50 in experiment [1], in experiment [2] and in experiment [3] were 1000 to 10000 nM, < 100 nM and 1000 to 10000 nM, respectively.

Turning to `CNC/C=C/C(=O)N(C)c1cccc(-n2c(=O)n(-c3ccc(Oc4ccccc4)cc3)c3c(N)ncnc32)c1` [Compound 229, (E)-N-(3-(6-amino-8-oxo-7-(4-phenoxyphenyl)-7H-purin-9(8H)-yl)phenyl)-N-methyl-4-(methylamino)but-2-enamide hydrochloride], the IC50 is 1000 to 10000 nM in experiment [1], < 100 nM in experiment [2] and < 100 nM in experiment [3].

With `CN(C(=O)/C=C/CN(C)C1CC1)c1cccc(-n2c(=O)n(-c3ccc(OCc4ccccc4)cc3)c3c(N)ncnc32)c1` [Compound 234, (E)-N-(3-(6-amino-7-(4-(benzyloxy)phenyl)-8-oxo-7H-purin-9(8H)-yl)phenyl)-4-(cyclopropyl(methyl)amino)-N-methylbut-2-enamide], the IC50 in experiment [1] is 1000 to 10000 nM; in experiment [2], < 100 nM; in experiment [3], 1000 to 10000 nM.
